# Key:
# [1] = target: T1, human testosterone 5α-reductase-2 (Homo sapiens, UniProt P31213); test: in vitro inhibition of human testosterone 5α-reductase-2 from hyperplastic human prostate tissue (test method 2); format: biochemical; conditions: hyperplastic human prostate particulate, pH 5.2, 37° C., 30 minutes
# T1 construct: using tissue from hyperplastic human prostates; from tissue; host or cells: hyperplastic human prostate, 100,000G particulate preparation
# T1 sequence (P31213 1-254): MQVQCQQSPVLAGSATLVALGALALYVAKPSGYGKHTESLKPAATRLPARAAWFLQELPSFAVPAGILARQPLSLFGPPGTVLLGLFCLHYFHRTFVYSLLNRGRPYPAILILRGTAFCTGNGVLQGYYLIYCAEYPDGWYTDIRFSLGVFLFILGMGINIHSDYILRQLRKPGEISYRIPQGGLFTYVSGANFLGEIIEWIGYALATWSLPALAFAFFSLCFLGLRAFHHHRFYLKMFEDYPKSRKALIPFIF
# Method: (2) The compounds of the formula (I) may be tested for their potency in inhibiting human testosterone 5α-reductase-2 using tissue from hyperplastic human prostates. In determining inhibitory potency against human prostatic 5α-reductase-2 the following procedure was employed:
# Frozen human prostate tissue was pulverised in liquid nitrogen using a steel mortar and pestle. The powdered tissue was homogenised in 4 volumes of Buffer A (20 mM sodium phosphate, pH 6.5, containing 0.32M sucrose, 1 mM dithiothreitol and 50 μM NADPH) with an Ultra-Turrax homogeniser (Janke and Kunkel GmBH & Co., Staufen i. BR., Germany). The homogenate was centrifuged at 500G for 5 minutes to remove large particles of tissue, and the supernatant was then centrifuged at 100,000G for 1 hour. The resulting pellet was dispersed in Buffer A (1 ml per g of prostate tissue originally used) with the Ultra-Turrax homogeniser. This particulate preparation was then filtered through 2 layers of cheesecloth and the filtrate was stored as 2ml samples at -70° C.
# The following components, dissolved in Buffer B (25 mM citrate phosphate buffer, pH 5.2), were added to a test tube: 100 μl of [^3 H]-testosterone (1 μCi, 1 nmol; Du Pont, NEN Research Products, Stevenage, U.K.), 100 μl of NADPH regeneration system (5 mM NADPH, 50 mM glucose 6-phosphate, 5 units/ml glucose 6-phosphate dehydrogenase), a compound of the formula (I) dissolved in 5 μl of dimethyl sulphoxide, and Buffer B to give a final reaction volume of 1 ml. The mixture was warmed to 37° C. and the reaction started by addition of an aliquot of prostate particulate suspension. The reaction mixture was incubated at 37° C. for 30 minutes and was then quenched by addition, with vigorous mixing, of 2 ml of ethyl acetate containing 20 μg each of testosterone and 5α-dihydrotestosterone as carriers. The aqueous and organic layers were separated by centrifugation at 2000 G for 10 minutes. The organic layer was transferred to a second test tube and evaporated to dryness under nitrogen. The residue was dissolved in 50-80μl of absolute ethanol, spotted onto a silica gel 60 F254 TLC plate (E. Merck, Darmstadt, Germany) and developed in dichloromethane:acetone (185:15).
# The radiochemical content in the bands of the substrate (testosterone) and the product (5α-dihydrotestosterone) were determined with a RITA Radio TLC Analyser (Raytest Instruments Ltd., Sheffield, U.K.). The percent of recovered radiolabel converted to 5α-dihydrotestosterone was calculated and used to determine enzyme activity. All incubations were conducted so that no more than 15% of substrate (testosterone) was converted to product.
# The experimentally obtained data for a range of inhibitor concentrations was computer fitted to a sigmoidal dose-response curve and concentrations of compound giving 50% inhibition of 5α-reductase activity (IC50 's) were calculated using a SIGFIT program (De Lean, A., Munson, P. J. and Rodbard, D., American Journal of Physiology, 235, E97 (1978)).
# (§1) The data were obtained using test method (4) set out on page 27 of the specification and test method (2) described on pages 24 to 26 of the specification, respectively.
# [2] = target: T2, human testosterone 5α-reductase-1 (Homo sapiens, UniProt P18405); test: in vitro inhibition of cloned human testosterone 5α-reductase-1 (test method 4); format: biochemical
# T2 construct: expressed in transfected cells
# T2 sequence (P18405 1-259): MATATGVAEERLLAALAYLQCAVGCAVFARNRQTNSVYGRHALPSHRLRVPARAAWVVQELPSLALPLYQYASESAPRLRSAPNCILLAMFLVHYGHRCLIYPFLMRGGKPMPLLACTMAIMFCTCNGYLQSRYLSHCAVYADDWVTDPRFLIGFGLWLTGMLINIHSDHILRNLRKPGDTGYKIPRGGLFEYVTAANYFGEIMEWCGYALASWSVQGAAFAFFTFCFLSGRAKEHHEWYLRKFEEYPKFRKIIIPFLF
# Excerpt: (4) The compounds of the formula (I) may be tested in vitro for human testosterone 5α-reductase-1 inhibitory activity using cloned human testosterone 5α-reductase-1 according to the procedure described in Proc. Natl. Acad. Sci. USA, 87, 3640 (1990).
# as §1
SMILES,IC50 [1] [nM],IC50 [2] [nM]
"CCCCC1(c2ccc(CCC)cc2)Oc2ccc(CC(=O)c3cn(CCCC(=O)O)c4ccccc34)cc2O1 (stereo not drawn) [Example 1, 4-(3-[(2-n-Butyl-2-[4-n-propyl]phenyl-1,3-benzodioxolan-5-yl)methylcarbonyl]indol-1-yl)butanoic acid]",6.9,15.5
CCCCCCC1(c2ccc(CCC)cc2)Oc2ccc(CC(=O)c3cn(CCCC(=O)O)c4ccccc34)cc2O1 (stereo not drawn) [Example 2],16.7,24
CCCc1ccc(C2(CCC)Oc3ccc(CC(=O)c4cn(CCCC(=O)O)c5ccccc45)cc3O2)cc1 (stereo not drawn) [Example 3],13.3,14
CCCCCC1(c2ccc(CCC)cc2)Oc2ccc(CC(=O)c3cn(CCCC(=O)O)c4ccccc34)cc2O1 (stereo not drawn) [Example 4],16.9,11
"CCCCC1(c2ccc(CC)cc2)Oc2ccc(CC(=O)c3cn(CCCC(=O)O)c4ccccc34)cc2O1 (stereo not drawn) [Example 5, 4-(3-[(2-n-butyl-2-[4-ethyl]phenyl-1,3-benzodioxolan-5-yl)methylcarbonyl]indol-1-yl)butanoic acid]",4.5,11
CCCCC1(c2ccc(CCC)cc2)Oc2ccc(CC(=O)c3cn(CCCC(=O)O)c4ccccc34)cc2O1 (stereo not drawn) [Example 6],2.3,17.5
